# In patent US20120184556A1, “SUBSTITUTED ENZOIMIDAZOLESULFONAMIDES AND SUBSTITUTED INDOLESULFONAMIDES AS MGLUR4 POTENTIATORS” (priority 2009, published 2012):
# Structures can show the parent of a compound that is named as a salt.
# Molecular target: T1, human mGluR4 (Homo sapiens, UniProt Q14833)
# T1 construct: expressed in transfected cells; host or cells: Chinese Hamster Ovary (CHO) cells
# Experiment: human mGluR4 potentiation assay, CHO cells, Fluo-4 calcium fluorescence, agonist EC20
# Assay type: cell-based
# Conditions: for Emax: CHO, maximum extent of potentiation, human mGluR4, read-out: GluMax; for EC50: potentiation of human mGluR4 response to EC20 agonist, read-out: hEC50
# Method: The disclosed compounds and compositions can be evaluated for their ability to act as a potentiator of metabotropic glutamate receptor activity, in particular mGluR4 activity, by any suitable known methodology known in the art. For example, Chinese Hamster Ovary (CHO) cells transfected with human mGluR4 or HEK cells co-transfected with rat mGluR4 and the G-protein regulated Inwardly Rectifying Potassium channel (GIRK) were plated in clear bottom assay plates for assay in a Hamamatsu FDSS Fluorometric Plate Reader. The cells were loaded with either the Ca2+-sensitive fluorescent dye Fluo-4 or the thallium responsive dye BTC, AM and the plates were washed and placed into a suitable kinetic plate reader. For human mGluR4 assays, a fluorescence baseline was established for 3-5 seconds, the disclosed compounds were then added to the cells, and the response in cells was measured. Approximately two and a half minutes later, a concentration of mGluR4 agonist (e.g. glutamate or L-AP4) eliciting approximately 20% (EC20) of the maximal agonist response was added to the cells, and the response was measured. Two minutes later, a concentration of mGluR4 agonist (e.g. glutamate or L-AP4) eliciting 80% (EC80) of the maximal agonist response was added to the cells, and the response was measured. For rat mGluR4/GIRK experiments, a baseline was established for approximately five seconds, disclosed compounds were added, and either an EC20 or EC80 concentration of agonist was added approximately two and one half minutes later. Potentiation of the agonist response of mGluR4 by the disclosed compounds was observed as an increase in response to the EC20 concentration of agonist in the presence of compound compared to the response to agonist in the absence of compound. Similarly, antagonism of the agonist response of mGluR4 by the disclosed compounds was observed as a decrease in response to the EC80 concentration of agonist in the presence of compound compared to the response to agonist in the absence of compound.
# The above described assay operated in two modes. In the first mode, a range of concentrations of the disclosed compounds are added to cells, followed by a single fixed concentration of agonist. If the compound acts as a potentiatior, an EC50 value for potentiation and a maximum extent of potentiation by the compound at this concentration of agonist is determined by non-linear curve fitting. If the compound acts as a noncompetitive antagonist, an IC50 value is determined by non-linear curve fitting. In the second mode, several fixed concentrations of the disclosed compounds are added to various wells on a plate, followed by a range in concentrations of agonist for each concentration of disclosed compound. The EC50 values for the agonist at each concentration of compound are determined by non-linear curve fitting. A decrease in the EC50 value of the agonist with increasing concentrations of the sample compound (a leftward shift of the agonist concentration-response curve) is an indication of the degree of mGluR4 potentiation at a given concentration of the sample compound. A decrease in the maximal response of the agonist with increasing concentrations of the sample compounds, with or without a rightward shift in agonist potency, is an indication of the degree of noncompetitive antagonism at mGluR4. The second mode also indicates whether the sample compounds also affect the maximum response to mGluR4 to agonists.
# T1 sequence (Q14833 33-912): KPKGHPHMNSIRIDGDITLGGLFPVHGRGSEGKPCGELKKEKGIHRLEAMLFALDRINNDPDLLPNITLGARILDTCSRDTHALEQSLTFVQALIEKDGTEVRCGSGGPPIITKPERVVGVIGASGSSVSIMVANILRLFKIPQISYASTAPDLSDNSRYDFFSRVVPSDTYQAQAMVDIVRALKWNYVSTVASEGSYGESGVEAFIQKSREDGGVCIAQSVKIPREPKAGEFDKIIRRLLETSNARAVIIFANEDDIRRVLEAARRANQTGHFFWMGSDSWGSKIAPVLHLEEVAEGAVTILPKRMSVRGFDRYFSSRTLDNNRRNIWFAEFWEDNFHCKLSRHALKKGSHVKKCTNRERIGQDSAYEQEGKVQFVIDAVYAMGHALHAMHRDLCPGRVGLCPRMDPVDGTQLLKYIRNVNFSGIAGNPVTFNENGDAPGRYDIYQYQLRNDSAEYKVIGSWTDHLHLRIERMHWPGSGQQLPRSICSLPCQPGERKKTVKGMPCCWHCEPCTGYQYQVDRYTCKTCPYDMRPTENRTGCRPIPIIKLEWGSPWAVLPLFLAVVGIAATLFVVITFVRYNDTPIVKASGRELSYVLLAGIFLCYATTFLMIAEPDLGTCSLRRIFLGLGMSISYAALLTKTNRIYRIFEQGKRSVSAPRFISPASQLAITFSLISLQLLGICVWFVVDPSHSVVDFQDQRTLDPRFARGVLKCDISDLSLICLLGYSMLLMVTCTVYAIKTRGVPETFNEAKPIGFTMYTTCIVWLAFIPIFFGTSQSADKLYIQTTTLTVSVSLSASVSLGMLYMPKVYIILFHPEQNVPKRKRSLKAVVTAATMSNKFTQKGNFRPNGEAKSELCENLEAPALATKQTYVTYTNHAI
Compound,Emax [%],EC50 [nM]
"O=S(=O)(Nc1ccccc1Br)c1ccc2[nH]c(-c3ccccc3)nc2c1 [Example 1, N-(2-Bromophenyl)-2-phenyl-1H-benzo[d]imidazole-5-sulfonamide]",60,499
"O=S(=O)(Nc1ccccc1Cl)c1ccc2[nH]c(-c3cccs3)nc2c1 [Example 9, N-(2-Chlorophenyl)-2-(thiophen-2-yl)-1H-benzo[d]imidazole-5-sulfonamide TFA salt]",103,318
"O=S(=O)(Nc1ccccc1Cl)c1ccc2[nH]c(C3CCCCO3)nc2c1 (centres unmarked) [Example 46, N-(2-chlorophenyl)-2-(tetrahydro-2H-pyran-2-yl)-1H-benzo[d]imidazole-5-sulfonamide]",112,2350
"O=S(=O)(Nc1ccc(F)cc1F)c1ccc2[nH]c(-c3ccccc3)nc2c1 [Example 36, N-(2,4-difluorophenyl)-2-phenyl-1H-benzo[d]imidazole-5-sulfonamide]",73,296
"O=S(=O)(Nc1ccccc1Cl)c1ccc2[nH]c(-c3ncc(F)cc3F)nc2c1 [Example 31, N-(2-chlorophenyl)-2-(3,5-difluoropyridin-2-yl)-1H-benzo[d]imidazole-5-sulfonamide]",123,473
"O=S(=O)(Nc1ccccc1F)c1ccc2[nH]c(-c3ccncn3)nc2c1 [Example 39, N-(2-fluorophenyl)-2-(pyrimidin-4-yl)-1H-benzo[d]imidazole-5-sulfonamide]",156,4820
"CN1CCCCC1c1nc2cc(S(=O)(=O)Nc3ccccc3Cl)ccc2[nH]1 (centres unmarked) [Example 53, N-(2-chlorophenyl)-2-(1-methylpiperidin-2-yl)-1H-benzo[d]imidazole-5-sulfonamide]",59,> 10000
"CCc1ccc(NS(=O)(=O)c2ccc3[nH]c(-c4ccsc4)nc3c2)cc1 [Example 48, N-(4-ethylphenyl)-2-(thiophen-3-yl)-1H-benzo[d]imidazole-5-sulfonamide]",85,313
"O=S(=O)(Nc1ccccc1F)c1ccc2[nH]c(-c3ccccn3)nc2c1 [Example 33, N-(2-fluorophenyl)-2-(pyridin-2-yl)-1H-benzo[d]imidazole-5-sulfonamide]",246,186
"O=S(=O)(Nc1ccccc1Cl)c1ccc2[nH]c(-c3cnccn3)nc2c1 [Example 7, N-(2-Chlorophenyl)-2-(pyrazin-2-yl)-1H-benzo[d]imidazole-5-sulfonamide]",149,1490
"O=S(=O)(Nc1c(F)cccc1F)c1ccc2[nH]c(-c3ccccc3)nc2c1 [Example 28, N-(2,6-difluorophenyl)-2-phenyl-1H-benzo[d]imidazole-5-sulfonamide]",38,318
"O=S(=O)(Nc1ccccc1F)c1ccc2[nH]c(-c3nccs3)nc2c1 [Example 40, N-(2-fluorophenyl)-2-(thiazol-2-yl)-1H-benzo[d]imidazole-5-sulfonamide]",222,756
"N#Cc1ccc(NS(=O)(=O)c2ccc3[nH]c(-c4ccccc4)nc3c2)cc1 [Example 19, N-(4-Cyanophenyl)-2-phenyl-1H-benzo[d]imidazole-5-sulfonamide TFA salt]",24,4900
"O=S(=O)(NC1CCCC1)c1ccc2[nH]c(-c3ccccc3)nc2c1 [Example 18, N-Cyclopentyl-2-phenyl-1H-benzo[d]imidazole-5-sulfonamide TFA salt]",105,11700
"O=S(=O)(Nc1ccc(F)cc1F)c1ccc2[nH]c(-c3cccc(F)n3)nc2c1 [Example 52, N-(2,4-difluorophenyl)-2-(6-fluoropyridin-2-yl)-1H-benzo[d]imidazole-5-sulfonamide]",226,140
"O=S(=O)(Nc1ccccc1Cl)c1ccc2[nH]c(-c3ncc[nH]3)nc2c1 [Example 27, N-(2-chlorophenyl)-2-(1H-imidazol-2-yl)-1H-benzo[d]imidazole-5-sulfonamide]",69,12800

Compound,Emax [%],EC50 [nM]
"O=S(=O)(Nc1ccccc1F)c1ccc2[nH]c(-c3cnccn3)nc2c1 [Example 37, N-(2-fluorophenyl)-2-(pyrazin-2-yl)-1H-benzo[d]imidazole-5-sulfonamide]",118,5490
"O=S(=O)(Nc1ccccc1Cl)c1ccc2[nH]c(-c3nccs3)nc2c1 [Example 14, N-(2-Chlorophenyl)-2-(thiazol-2-yl)-1H-benzo[d]imidazole-5-sulfonamide]",194,770
"O=S(=O)(Nc1ccccc1Cl)c1ccc2[nH]c(C3CCCCC3)nc2c1 [Example 4, N-(2-Chlorophenyl)-2-cyclohexyl-1H-benzo[d]imidazole-5-sulfonamide]",141,1760
"O=S(=O)(Nc1ccccc1Cl)c1ccc2[nH]c(-c3ccccc3C(F)(F)F)nc2c1 [Example 23, N-(2-chlorophenyl)-2-(2-(trifluoromethyl)phenyl)-1H-benzo[d]imidazole-5-sulfonamide]",36,9440
"O=S(=O)(Nc1cccnc1)c1ccc2[nH]c(-c3ccccc3)nc2c1 [Example 16, 2-Phenyl-N-(pyridin-3-yl)-1H-benzo[d]imidazole-5-sulfonamide bis TFA salt]",41,5950
"O=S(=O)(Nc1ccccc1Cl)c1ccc2[nH]c(-c3ccccc3F)nc2c1 [Example 21, N-(2-chlorophenyl)-2-(2-fluorophenyl)-1H-benzo[d]imidazole-5-sulfonamide]",64,988
"O=S(=O)(Nc1ccccc1Cl)c1ccc2[nH]c(-c3ccncn3)nc2c1 [Example 11, N-(2-Chlorophenyl)-2-(pyrimidin-4-yl)-1H-benzo[d]imidazole-5-sulfonamide]",148,2830
"CN(c1ccccc1F)S(=O)(=O)c1ccc2[nH]c(-c3ccccn3)nc2c1 [Example 50, N-(2-fluorophenyl)-N-methyl-2-(pyridin-2-yl)-1H-benzo[d]imidazole-5-sulfonamide]",61,1110
"O=S(=O)(Nc1ccccc1F)c1ccc2[nH]c(-c3ccccc3)nc2c1 [Example 17, N-(2-Fluorophenyl)-2-phenyl-1H-benzo[d]imidazole-5-sulfonamide TFA salt]",87,320
"Cc1cc(-c2nc3cc(S(=O)(=O)Nc4ccccc4Cl)ccc3[nH]2)on1 [Example 35, N-(2-chlorophenyl)-2-(3-methylisoxazol-5-yl)-1H-benzo[d]imidazole-5-sulfonamide]",87,1980
"O=S(=O)(Nc1ccccc1Cl)c1ccc2[nH]c(-c3ccccn3)nc2c1 [Example 3, N-(2-Chlorophenyl)-2-(pyridin-2-yl)-1H-benzo[d]imidazole-5-sulfonamide]",226,72.3
"Cn1ccnc1-c1nc2cc(S(=O)(=O)Nc3ccccc3Cl)ccc2[nH]1 [Example 41, N-(2-chlorophenyl)-2-(1-methyl-1H-imidazol-2-yl)-1H-benzo[d]imidazole-5-sulfonamide]",83,9470
"O=S(=O)(Nc1ccccc1F)c1ccc2[nH]c(-c3ccsc3)nc2c1 [Example 38, N-(2-fluorophenyl)-2-(thiophen-3-yl)-1H-benzo[d]imidazole-5-sulfonamide]",42,369
"O=S(=O)(Nc1ccc(F)cc1F)c1ccc2[nH]c(-c3ccccn3)nc2c1 [Example 51, N-(2,4-difluorophenyl)-2-(pyridin-2-yl)-1H-benzo[d]imidazole-5-sulfonamide]",252,99
"CC1CCN(S(=O)(=O)c2ccc3[nH]c(-c4ccccn4)nc3c2)CC1 [Example 45, 5-((4-methylpiperidin-1-yl)sulfonyl)-2-(pyridin-2-yl)-1H-benzo[d]imidazole]",104,7450
